According to patent publication US20250205316A1, “COLLOIDAL FIBRIN NANOPARTICLE COMPOSITIONS AND USES” (NORTH CAROLINA STATE UNIVERSITY, priority 2023, published 2025):
Read-outs that look alike come from different tables or passages of the source.

Legend:
HUVECs and HLFs = assay: Microfluidic vasculogenesis assay with free tazarotene; assay type: cell-based, human
Method: The effects of tazarotene dosage on vascular network formation were investigated through the use of an established microfluidic vasculogenesis model (FIG. 12A). HUVECs and HLFs were embedded in 2 mg/mL human fibrin gels made 25 mM HEPES buffer and 0.5 U/mL thrombin. Media channels in the microdevice (FIG. 12A) were filled with HUVEC media supplemented with free tazarotene. Daily media changes and brightfield imaging were completed until cells were fixed with 4% paraformaldehyde at 1 week after seeding. Cells were permeabilized with 0.3% Triton X-100 (Sigma), immunostained with PEKAM-1 antibody (ThermoFisher), and stained with phalloidin (Invitrogen) and DAPI (Invitrogen) in order to visualize networks of both HUVECs and HLFs. Imaging was performed using a confocal microscope with a 10× objective. At least 3 devices were imaged for each experimental group and 3 images were taken per device. ImageJ was used to quantify vascular network characteristics (average segment length, average segment width, average number of branch points, and total endothelial area).

HUVECs = assay: HUVEC morphology and attachment on tazarotene-loaded thin films; assay type: cell-based, human
Method: The effects of tazarotene released from bulk fibrin gels on individual cellular morphology was determined through the low-density culture of HUVECs on thin films of loaded fibrin gels. Fibrin gels with varying concentrations of bulk tazarotene incorporated were allowed to polymerize between two clean glass coverslips for 1 hour, in order to form thin films. Thin films of 80 μL were made using 2 mg/ml human fibrinogen (Enzyme Research Laboratories), HEPES buffer (25 mM), and 0.5 U/ml human thrombin. Upon removal of one glass coverslip, the remaining glass and attached gel were placed within the well of a 12-well plate and rinsed with PBS. HUVECs (15,000 cells/well) were cultured for 16 hours, at which point they were fixed and stained. Images of cells were captured at 10× using an EVOS FL Auto Imaging System, with at least 5 images taken per thin film. In order to validate the nanoparticle release of tazarotene from FBNs, 80 μL FBN gel (330 M particles/mL) thin films were formed with different relative ratios of tazarotene-loaded to unloaded FBNs. All other elements of the procedure were the same.

[1] = fibrin gel thin films bulk loaded with tazarotene, 16 hours

For CCOC(=O)c1ccc(C#Cc2ccc3c(c2)C(C)(C)CCS3)nc1 [tazarotene], the “average network segment width” value (HUVECs and HLFs) was 36±11 μm, the average segment length (HUVECs and HLFs; 20 nM free tazarotene, 1 week) was 218±54 μm and the “average network segment width” value (HUVECs and HLFs; 2 μM free tazarotene, 1 week) was 23±4 μm. For the same compound, the average segment length (HUVECs and HLFs; 2 μM free tazarotene, 1 week) was 226±40 μm, the endothelial network area (HUVECs and HLFs; 2 μM free tazarotene, 1 week) was 130167±61886 μm^2 and the endothelial network area (HUVECs and HLFs; 20 μM free tazarotene, 1 week) was 206,763±51,803 μm^2. For the same compound, the “average network segment width” value (HUVECs and HLFs; 200 μM free tazarotene, 1 week) was 31±7 μm, the endothelial network area (HUVECs and HLFs; 200 μM free tazarotene, 1 week) was 240,770±44,210 μm^2 and the endothelial network area (HUVECs and HLFs; 2000 μM free tazarotene, 1 week) was 230,087±51,803 μm^2. For the same compound, the branch points (HUVECs and HLFs; across tazarotene concentrations) was “No significant differences”, the “concentration with the most cell spreading” value (HUVECs; [1]) was 200 nM and the “effect on cellular attachment” value (HUVECs; [1]) was “no significant effect”. The cell circularity (HUVECs; with increasing concentrations) was “less circularity” and the cell perimeter (HUVECs; with increasing concentrations) was “greater perimeter”.
